Reference: patent US20090076029A1 (Palatin Technologies, Inc., priority 2007, published 2009)
Values joined by “and” are separate entries in the source; they are usually repeats but may differ in a detail not shown here. Equal entries are not always repeated. Where two headings read alike, the source gives them in different places.

Experiments:
MC1-R [1] = biological target: T1, MC1-R; test: Competitive inhibition assay using [I125]-NDP-α-MSH, MC1-R membranes; type: binding, mouse; conditions: for Inhibition at 1 μM (NDP-α-MSH) MC1-R: 1 μM compound
T1 construct: other: 1 μM compound
Protocol: (§1) Competitive inhibition assay using [1125]-NDP-α-MSH. A competitive inhibition binding assay was conducted using membranes prepared from HEK-293 cells transfected to express hMC3-R, hMC4-R or hMC5-R, and from B-16 mouse melanoma cells (containing MC1-R) using 0.2 to 0.4 nM [I^125]-NDP-α-MSH (New England Nuclear) in 50 mM HEPES buffer containing 1 mM MgCl2, 2 mM CaCl2, and 5 mM KCl, at pH 7.2. In certain experiments, HEK-293 cells transfected to express hMC1-R were also employed. The assay tube also contained a chosen concentration of the test compound of this invention, typically a 1 μM concentration, for determining inhibition of the binding of [^1125]-NDP-α-MSH to its receptor. Non-specific binding was measured by inhibition of binding of [I^125]-NDP-α-MSH in the assay with the presence of 1 μM α-MSH.
(§2) The assay mixture was incubated for 90 minutes at room temperature, then filtered and the membranes washed three times with ice cold buffer. The filter was dried and counted in a gamma counter for remaining radioactivity bound to the membranes. 100% specific binding was defined as the difference in radioactivity (cpm) bound to cell membranes in the absence and presence of 1 μM α-MSH. The cpm obtained in presence of test compounds were normalized with respect to 100% specific binding to determine the percent inhibition of [125]-NDP-α-MSH binding. Each assay was conducted in triplicate and the actual mean values are described, with results less than 0% reported as 0%.

hMC3-R [2] = biological target: T2, hMC3-R; test: Competitive inhibition assay using [I125]-NDP-α-MSH, hMC3-R membranes; type: binding, human; conditions: for Ki: read-out: Ki (nM) (NDP-α-MSH) MC3-R
T2 construct: expressed in transfected cells; host or cells: HEK-293
Protocol: as §1, §2

hMC4-R [3] = biological target: T3, hMC4-R; test: Competitive inhibition assay using [I125]-NDP-α-MSH, hMC4-R membranes; type: binding, human; conditions: for attenuation of binding of α-MSH and AgRP to MC4-R: both ligands (NDP-α-MSH and AgRP), summary; for Inhibition at 1 μM (NDP-α-MSH) MC4-R: 1 μM compound
T3 construct: expressed in transfected cells; host or cells: HEK-293
Protocol: as §1, §2

hMC5-R [4] = biological target: T4, hMC5-R; test: Competitive inhibition assay using [I125]-NDP-α-MSH, hMC5-R membranes; type: binding, human; conditions: for Ki: read-out: Ki (nM) (NDP-α-MSH) MC5-R
T4 construct: expressed in transfected cells; host or cells: HEK-293
Protocol: as §1, §2

hMC4-R [5] = tested on: T3, hMC4-R; type: binding, human; conditions: for Inhibition at 1 μM (AgRP) MC4-R: 1 μM compound
Protocol: Competitive binding assay using [I^125]-AgRP (83-132). Competitive binding studies using [I^125]-AgRP (83-132) were carried out on membranes isolated from cells expressing hMC4-R. The assay was performed in 96 well GF/B Millipore multiscreen filtration plates (MAFB NOB10) pre-coated with 0.5% bovine serum albumin (Fraction V). The assay mixture contained 25 mM HEPES buffer (pH 7.5) with 100 mM NaCl, 2 mM CaCl2, 2 mM MgCl2, 0.3 mM 1,10-phenanthroline, 0.5% bovine serum albumin, cell membranes, radioligand [I^125]-AgRP (83-132) (NEN), and increasing concentrations of compounds in a total volume of 200 μL. Binding was measured at radioligand concentrations of 0.2 nM. After incubating for 1 hour at 37° C., the reaction mixture was filtered and washed with an assay buffer containing 500 mM NaCl. The dried discs were punched out from the plate and counted on a gamma counter. Care was taken to limit the specific binding of the ligand to an amount not exceeding 10% of the counts added to the reaction mixture. Data were analyzed using the Prism Graph-Pad curve fitting software.

hMC4-R [6] = tested on: T3, hMC4-R; test: cAMP functional assay in HEK-293 cells expressing MC4-R (agonist, neutral antagonist/Schild); type: cell-based, human; conditions: for intrinsic activity at MC4-R: NDP-α-MSH maximal stimulation = 1.0; for functional status at MC4-R: mostly at 1 μM
Protocol: (§3) General method for EC50 determination in functional activity assay. Functional evaluation of compounds at melanocortin receptors was performed by measuring the accumulation of intracellular cAMP in HEK-293 cells expressing hMC3-R, hMC4-R or hMC5-R, and in B-16 mouse melanoma cells expressing MC1-R. Cells suspended in Earle's Balanced Salt Solution containing 10 mM HEPES (pH 7.5), 5 mM MgCl2, 1 mM glutamine, 0.1% albumin and 0.6 mM 3-isobutyl-1-methyl-xanthine, a phosphodiesterase inhibitor, were plated in 96 well plates at a density of 0.5×10^5 cells per well. Cells were incubated with the test compounds in the presence or absence of α-MSH for 1 hour at 37° C. cAMP levels in the cell lysates were measured using an EIA kit (Amersham). Data analysis and EC50 values were determined using nonlinear regression analysis with Prism Graph-Pad software.
(§4) Functional status. The agonist/antagonist status with respect to MC1-R, MC-3R, MC4-R and MC5-R of certain compounds of the invention was determined.
Assay for agonist. Evaluation of the molecules to elicit a functional response in HEK-293 cells expressing MC4-R was accomplished by measuring the accumulation of intracellular cAMP following treatment. Confluent HEK-293 cells expressing MC4-R were detached by enzyme free cell suspension buffer. Cells were suspended in Earle's Balanced Salt Solution containing 10 mM HEPES (pH 7.5), 1 mM MgCl2, 1 mM glutamine, 0.5% albumin and 0.3 mM 3-isobutyl-1-methyl-xanthine (IBMX), a phosphodiesterase inhibitor. The cells were plated in 96 well plates at a density of 0.5×10^5 cells per well and pre-incubated for 30 minutes. The cells were then challenged with the test compounds dissolved in DMSO at a concentration range of 0.05-5000 nM in a total assay volume of 200 μL for 1 hour at 37° C. The concentration of DMSO was always held at 1% in the assay mixture. NDP-α-MSH was used as the reference agonist. At the end of the incubation period the cells were disrupted by the addition of 50 μL of lysis buffer from a cAMP EIA kit (Amersham). Complete rupture of the cells was obtained by pipetting the cells multiple times. cAMP levels in the cell lysates were measured after appropriate dilution using the EIA kit (Amersham) method. Data analysis and EC50 values were determined by using nonlinear regression analysis with Prism Graph-Pad software. […] FIG. 1 illustrates typical results, showing the stimulation of cAMP using the compound of Example 11 in HEK-293/MC4-R cells with comparison to NDP-α-MSH.
Assay for Neutral Antagonist. Compounds with a high affinity for binding to MC4-R membranes but with less potency in terms of cAMP accumulation (EC50>1000 nM) and low response ratio (<0.1) were analyzed for their ability to antagonize the stimulatory effect of the agonist NDP-α-MSH. These studies were carried out in HEK-293 cells expressing MC4-R. Cells were incubated with the compounds in the presence of the agonist NDP-α-MSH and the extent of antagonism was measured by the decrease in intracellular cAMP concentrations. Screening the compounds for antagonist activity was performed at a single concentration of NDP-α-MSH (1.0 nM) over a compound concentration range of 0.5-5000 nM.
Experimental details were similar to the analysis for agonistic activity described above. Briefly, cells were pre-incubated for 30 minutes with the test compounds at concentrations between 0.5 nM and 5000 nM. The cells were then stimulated with NDP-α-MSH at a concentration of 1 nM for 1 hour. For Schild's analysis, the interactions were studied using at least 3 concentrations of the compounds, separated by a log unit, over a full range of the agonist (0.005-5000 nM). cAMP levels were measured in the cell lysates after appropriate dilution. Nonlinear regression analysis with Prism Graph-Pad software was used for Schild analysis and to obtain EC50 values. pA2 values were derived from the Schild plot of the data.

MC1-R [7] = tested on: T5, MC1-R; test: cAMP functional assay, B-16 mouse melanoma cells expressing MC1-R; type: cell-based; conditions: cAMP assay at 1 μM
T5 construct: from B-16 mouse melanoma cells (containing MC1-R); endogenous in cells; host or cells: B-16 mouse melanoma cells
Protocol: as §3, §4

hMC3-R [8] = tested on: T2, hMC3-R; test: cAMP functional assay, HEK-293 cells expressing hMC3-R; type: cell-based, human; conditions: cAMP assay at 1 μM
Protocol: as §3, §4

hMC5-R [9] = tested on: T4, hMC5-R; test: cAMP functional assay, HEK-293 cells expressing hMC5-R; type: cell-based, human; conditions: cAMP assay at 1 μM
Protocol: as §3, §4

[10] = MC4-R membranes, Table 1, read-out: Ki (nM) I125-NPD-α-MSH
[11] = read-out: Ki (nM) (NDP-α-MSH) MC4-R
[12] = MC4-R membranes, Table 1, read-out: Ki (nM) I125-AgRP
[13] = cAMP assay, read-out: EC50 (nM) at MC4-R

Molecule	Ki (MC1-R [1]) [nM]	Inhibition at 1 μM (NDP-α-MSH) MC1-R (MC1-R [1]) [%]	Ki (hMC3-R [2]) [nM]	Ki (hMC4-R [3]; [10]) [nM]	attenuation of binding of α-MSH and AgRP to MC4-R (hMC4-R [3])	Ki (hMC4-R [3]; [11]) [nM]	Ki (hMC5-R [4]) [nM]	Inhibition at 1 μM (AgRP) MC4-R (hMC4-R [5]) [%]	Ki (hMC4-R [5]; [12]) [nM]	Ki (hMC4-R [5]; read-out: Ki (nM) (AgRP) MC4-R)	functional status (pAg, Ag, Antag, Inactive) (hMC4-R [6]; MC4-R, Table 1)	EC50 (hMC4-R [6]; MC4-R, Table 1, read-out: EC50) [nM]	intrinsic activity at MC4-R (hMC4-R [6])	EC50 (hMC4-R [6]; [13]) [nM]	functional status at MC1-R (MC1-R [7])	functional status at MC3-R (hMC3-R [8])	functional status at MC5-R (hMC5-R [9])	functional status at MC4-R (hMC4-R [6]; cAMP assay)	Inhibition at 1 μM (NDP-α-MSH) MC4-R (hMC4-R [3]) [%]	other results
Cc1ccc(CCN2C[C@H](CCCNC(=N)N)N(C(=O)[C@H](N)Cc3ccc4ccccc4c3)C[C@H]2C)cc1 [Example 5, N-{3-[1-(2(R)-Amino-3-naphthalen-2-yl-propionyl)-5(R)-methyl-4-(2-p-tolyl-ethyl)-piperazin-2(S)-yl]-propyl}-guanidine]	135	32	164	29	attenuate the binding of both α-MSH and AgRP to MC4-R	29	448	93	42	42	pAg (“pAg” means partial agonist)	370	0.6	370	partial agonist (intrinsic activity between 0.1 (10%) and 0.7 (70%) is classified as a partial agonist)	no intrinsic activity (intrinsic activity below 0.1 (10%) is classified as inactive or having no intrinsic activity)	partial agonist (intrinsic activity between 0.1 (10%) and 0.7 (70%) is classified as a partial agonist)			
NH2—(CH2)6—C(═O)-Ser(Bzl)-D-Phe(4-Cl)-Arg-Trp-Asp-NH2 [Example 14]	760	35	180								pAg (“pAg” means partial agonist)	568	0.5	568	inactive	partial agonist (intrinsic activity between 0.1 (10%) and 0.7 (70%) is classified as a partial agonist)	inactive	partial agonist (intrinsic activity between 0.1 (10%) and 0.7 (70%) is classified as a partial agonist)		
C[C@@H]1CN(C(=O)[C@H](N)Cc2ccc(Cl)cc2Cl)[C@@H](CCCNC(=N)N)CN1CCc1ccc2ccccc2c1 [Example 12, N-{3-[1-[2(R)-Amino-3-(2,4-dichloro-phenyl)-propionyl]-5(R)-methyl-4-(2-naphthalen-2-yl-ethyl)-piperazin-2(S)-yl]-propyl}-guanidine]	1130	20									Antag (“Antag” means antagonist)				inactive	inactive	inactive	antagonist	99	pA2 value at MC4-R (hMC4-R [6]; Schild plot vs NDP-α-MSH): 7.52 and 7.7
N=C(N)NCCC[C@H]1C(=O)N(CCc2c[nH]c3ccccc23)CCN1C(=O)[C@H](N)Cc1ccc(Cl)cc1Cl [Example 2, N-(3-{(S)-1-[(R)-2-Amino-3-(2,4-dichloro-phenyl)-propionyl]-4-[2-(1H-indol-3-yl)-ethyl]-3-oxo-piperazin-2-yl}-propyl)-guanidine]	1410	7	533	15	attenuate the binding of both α-MSH and AgRP to MC4-R	15	1580		38	38	pAg (“pAg” means partial agonist)	604	0.3	604	partial agonist (intrinsic activity between 0.1 (10%) and 0.7 (70%) is classified as a partial agonist)		partial agonist (intrinsic activity between 0.1 (10%) and 0.7 (70%) is classified as a partial agonist)		96	
CC(C)C[C@H]1CN(C(=O)[C@H](N)Cc2ccc(Cl)cc2Cl)[C@@H](CCCNC(=N)N)CN1CCc1ccc2ccccc2c1 [Example 3, N-{3-[1-[2(R)-Amino-3-(2,4-dichloro-phenyl)-propionyl]-5(S)-isobutyl-4-(2-naphthalen-2-yl-ethyl)-piperazin-2(S)-yl]-propyl}-guanidine]	5900	4	495	48		48	698	91	39	39	Inactive		no intrinsic activity		partial agonist (intrinsic activity between 0.1 (10%) and 0.7 (70%) is classified as a partial agonist)		partial agonist (intrinsic activity between 0.1 (10%) and 0.7 (70%) is classified as a partial agonist)	inactive	95	Inhibition at 1 μM (NDP-α-MSH) MC3-R (hMC3-R [2]; 1 μM compound): 16%; Inhibition at 1 μM (NDP-α-MSH) MC5-R (hMC5-R [4]; 1 μM compound): 28%
